Reference: patent US9730940B2, “Purine inhibitors of human phosphatidylinositol 3-kinase delta” (priority 2012, dated 2017)

Legend:
PI3K-delta = PI3K-delta (Homo sapiens (Human), UniProt O00329); assay: biochemical; settings: PI3Kdelta IC50, HTRF biochemical assay; compound form screened given
Text: HTRF PI3K Biochemical Assay to Measure Intrinsic Potency of Compound Inhibitors
The PI3-Kinase biochemical assays were developed to measure the intrinsic potency and compound dependent inhibition of the alpha, beta, delta, and gamma PI3K isoform enzymes. This assay was developed and further optimized from a kit produced by Upstate (Millipore catalog #33-047) and has been configured for HTS and SAR screening. Briefly, this procedure exploits the exquisite specificity and high affinity binding of enzyme reaction substrate phosphatidyl(3,4,5)triphosphate (PIP3) to the GRP1 pleckstrin homology (PH) domain to generate the signal. In the absence of PIP3, an HTRF (Homogeneous Time-Resolved Fluorescence energy transfer) complex is formed consisting of europium (Eu)-labeled anti-GST, GST tagged GRP1-PH domain, biotin-PIP3 and streptavidin conjugated APC. The native PIP3 produced by PI3-Kinase activity disrupts in a competitive manner the biotin-PIP3 from the PH domain, resulting in the loss of energy transfer (HTRF complex) and a decrease in the signal. The format of this assay is the same for all 4 isoforms of PI3K; the differences lie in the concentration of enzyme used to achieve robust assay window. The alpha, beta, and delta assays are run at 0.5, 1, and 0.3 nM enzymes and the gamma assay is run at 5 nM enzyme. The ATP concentration is 100 uM in the alpha, beta, and delta assays and 50 uM ATP in the gamma assay. All reactions are run at 5 uM PIP2.
Compounds are serially diluted (3-fold in 100% DMSO) across a 384-well polypropylene source plated from column 3 to column 12 and column 13 to column 22, to yield 10 concentration dose response for each test compound. Columns 1, 2, 23 and 24 contain either only DMSO or pharmacological known control inhibitor.
The PI3-Kinase biochemical assay was optimized using the HTRF kit provided by Upstate (Millipore). The assay kit contains six reagents: 1) 4× Reaction Buffer; 2) native PIP2 (substrate); 3) Stop (EDTA); 4) Detection Mix A (Streptavidin-APC); 5) Detection Mix B (Eu-labeled Anti-GST plus GST-tagged PH-domain); 6) Detection Mix C.
PI3Kinase Reaction Buffer is prepared by dilution the stock 1:4 with de-ionized water. […] Enzyme addition and compound pre-incubation are initiated by the addition of 1.25 ul of PI3K (at twice its final concentration) in the 1× reaction buffer to all wells using a BioRaptor. Plates are incubated at room temperature for 15 minutes. Reactions are initiated by addition of 1.25 ul of 2× substrate solution (PIP2 and ATP in 1× reaction buffer) using BioRaptor. Plates are incubated in humidified chamber at room temperature for one hour. Reactions are quenched by addition of 0.625 uL of stop solution to all wells using the BioRaptor. The quenched reactions are then processed to detect product formation by adding 0.625 uL of Detection Solution to all wells using the BioRaptor (Detection mix C, Detection Mix A, and Detection Mix B combined together in an 18:1:1 ratio prepared 2 hours prior to use).
The loss of the HTRF signal is due to the displacement of biotinylated-PIP3 from the PH domain by the PI3K-dependent conversion of PIP2 to PIP3. […] All data were calculated using the ratio of acceptor (APC) to donor (Europium) fluorescence in each well of the assay plate. […] An IC50 was then calculated fitting the % inhibition data to the equation: % inhibition=min+(Max−min)/1+([inhibitor]/IC50)^n) where min is the % inhibition […], max is the signal in DMSO control, and n is the Hill slope.

PI3K-alpha = PI3K-alpha (Homo sapiens (Human), UniProt P42336); assay: HTRF PI3K biochemical assay, alpha isoform; settings: ratio PI3K-alpha IC50 value/PI3K-delta IC50 value
Sequence of PI3K-alpha (P42336 whole entry, looked up, canonical isoform): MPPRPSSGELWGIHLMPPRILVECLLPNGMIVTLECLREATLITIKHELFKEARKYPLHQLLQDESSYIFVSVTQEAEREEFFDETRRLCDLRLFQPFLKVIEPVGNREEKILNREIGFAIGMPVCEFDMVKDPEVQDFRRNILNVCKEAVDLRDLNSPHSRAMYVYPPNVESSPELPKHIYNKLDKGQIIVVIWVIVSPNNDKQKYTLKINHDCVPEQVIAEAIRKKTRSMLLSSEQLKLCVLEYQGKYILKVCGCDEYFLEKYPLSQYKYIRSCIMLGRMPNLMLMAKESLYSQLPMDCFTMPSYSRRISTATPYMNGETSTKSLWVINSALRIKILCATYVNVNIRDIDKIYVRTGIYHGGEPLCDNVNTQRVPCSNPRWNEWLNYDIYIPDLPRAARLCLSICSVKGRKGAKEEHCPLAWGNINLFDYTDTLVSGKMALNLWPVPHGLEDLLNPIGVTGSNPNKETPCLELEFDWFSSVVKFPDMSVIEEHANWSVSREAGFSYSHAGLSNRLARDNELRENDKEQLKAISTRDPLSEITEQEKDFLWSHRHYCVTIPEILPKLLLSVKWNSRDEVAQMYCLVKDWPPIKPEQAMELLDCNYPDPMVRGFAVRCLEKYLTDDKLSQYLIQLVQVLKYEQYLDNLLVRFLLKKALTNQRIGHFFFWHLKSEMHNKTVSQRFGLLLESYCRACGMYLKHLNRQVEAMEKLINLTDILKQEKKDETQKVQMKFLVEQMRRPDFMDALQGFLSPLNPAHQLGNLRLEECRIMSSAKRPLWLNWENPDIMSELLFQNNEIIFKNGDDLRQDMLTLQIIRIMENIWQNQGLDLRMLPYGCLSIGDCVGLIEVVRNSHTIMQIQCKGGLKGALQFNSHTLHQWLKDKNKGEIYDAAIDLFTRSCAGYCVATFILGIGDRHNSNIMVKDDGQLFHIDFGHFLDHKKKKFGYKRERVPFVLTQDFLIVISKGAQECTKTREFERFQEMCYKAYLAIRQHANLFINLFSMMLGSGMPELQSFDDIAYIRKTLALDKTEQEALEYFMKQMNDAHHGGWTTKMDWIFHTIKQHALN
Sequence of PI3K-alpha (P27986 whole entry partner, looked up, canonical isoform): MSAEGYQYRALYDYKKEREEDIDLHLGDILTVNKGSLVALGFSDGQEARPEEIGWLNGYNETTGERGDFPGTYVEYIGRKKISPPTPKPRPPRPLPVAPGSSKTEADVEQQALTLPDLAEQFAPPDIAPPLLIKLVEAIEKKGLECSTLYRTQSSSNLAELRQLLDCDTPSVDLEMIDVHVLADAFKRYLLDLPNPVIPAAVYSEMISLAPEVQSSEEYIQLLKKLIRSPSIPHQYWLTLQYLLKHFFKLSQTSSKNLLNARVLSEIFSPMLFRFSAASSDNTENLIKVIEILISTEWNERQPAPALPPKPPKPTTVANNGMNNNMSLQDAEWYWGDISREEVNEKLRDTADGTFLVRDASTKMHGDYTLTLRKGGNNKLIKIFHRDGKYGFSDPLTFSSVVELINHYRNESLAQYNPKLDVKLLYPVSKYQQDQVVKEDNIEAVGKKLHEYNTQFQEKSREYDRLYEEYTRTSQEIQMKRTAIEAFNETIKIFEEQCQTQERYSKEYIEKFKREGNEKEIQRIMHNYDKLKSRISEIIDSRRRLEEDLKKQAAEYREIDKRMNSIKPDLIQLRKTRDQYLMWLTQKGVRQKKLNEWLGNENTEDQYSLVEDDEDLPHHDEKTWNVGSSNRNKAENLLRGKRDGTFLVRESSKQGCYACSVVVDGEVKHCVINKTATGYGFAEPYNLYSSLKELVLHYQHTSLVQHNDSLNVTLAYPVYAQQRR

Sequence of PI3K-delta (O00329 whole entry, looked up): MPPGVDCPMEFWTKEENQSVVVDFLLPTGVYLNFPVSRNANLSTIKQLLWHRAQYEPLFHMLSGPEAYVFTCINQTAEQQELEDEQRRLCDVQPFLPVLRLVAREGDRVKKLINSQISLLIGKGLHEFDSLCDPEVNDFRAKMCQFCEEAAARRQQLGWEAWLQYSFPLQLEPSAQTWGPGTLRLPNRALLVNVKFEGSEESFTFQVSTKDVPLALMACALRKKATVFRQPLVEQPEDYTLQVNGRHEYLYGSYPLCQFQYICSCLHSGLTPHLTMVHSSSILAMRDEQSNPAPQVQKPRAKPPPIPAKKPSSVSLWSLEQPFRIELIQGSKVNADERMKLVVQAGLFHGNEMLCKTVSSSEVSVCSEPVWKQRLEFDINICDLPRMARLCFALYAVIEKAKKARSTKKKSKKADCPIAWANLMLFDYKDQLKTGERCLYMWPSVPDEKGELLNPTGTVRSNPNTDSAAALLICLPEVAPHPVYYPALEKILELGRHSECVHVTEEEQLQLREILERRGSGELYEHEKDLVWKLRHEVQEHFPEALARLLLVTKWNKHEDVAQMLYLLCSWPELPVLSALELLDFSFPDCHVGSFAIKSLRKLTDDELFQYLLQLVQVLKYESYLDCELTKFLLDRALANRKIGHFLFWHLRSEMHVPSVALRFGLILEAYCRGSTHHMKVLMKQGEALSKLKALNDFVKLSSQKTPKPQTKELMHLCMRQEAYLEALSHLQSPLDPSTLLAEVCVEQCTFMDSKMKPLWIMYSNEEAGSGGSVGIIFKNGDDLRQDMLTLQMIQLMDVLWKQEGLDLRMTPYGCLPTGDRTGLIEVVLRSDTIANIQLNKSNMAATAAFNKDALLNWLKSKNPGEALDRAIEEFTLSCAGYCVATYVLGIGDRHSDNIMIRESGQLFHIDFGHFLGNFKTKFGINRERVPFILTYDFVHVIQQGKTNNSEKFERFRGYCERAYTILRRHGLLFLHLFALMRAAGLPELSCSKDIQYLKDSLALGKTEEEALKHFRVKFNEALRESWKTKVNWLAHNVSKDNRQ
Sequence of PI3K-delta (P27986 whole entry partner, looked up): as the sequence (P27986 whole entry partner, looked up, canonical isoform) above

CCn1c(-c2cnc(C)nc2)nc2c(O[C@H]3CCN(C(=O)N4CCC4C)C3)ncnc21 (single isomer, unassigned) [Compound 5-16, 9-ethyl-6-({(3S)-1-[((2R or 2S)-methylazetidin-1-yl)carbonyl]pyrrolidin-3-yl}oxy)-8-(2-methylpyrimidin-5-yl)-9H-purine]
IC50 (PI3K-delta): 16 nM | Relative Selectivity versus PI3Kalpha (PI3K-alpha): >10
